Assay [1] deals with T1, Lysophosphatidylserine lipase ABHD12 (Mus musculus) (UniProt Q99LR1).
T1 sequence (whole entry): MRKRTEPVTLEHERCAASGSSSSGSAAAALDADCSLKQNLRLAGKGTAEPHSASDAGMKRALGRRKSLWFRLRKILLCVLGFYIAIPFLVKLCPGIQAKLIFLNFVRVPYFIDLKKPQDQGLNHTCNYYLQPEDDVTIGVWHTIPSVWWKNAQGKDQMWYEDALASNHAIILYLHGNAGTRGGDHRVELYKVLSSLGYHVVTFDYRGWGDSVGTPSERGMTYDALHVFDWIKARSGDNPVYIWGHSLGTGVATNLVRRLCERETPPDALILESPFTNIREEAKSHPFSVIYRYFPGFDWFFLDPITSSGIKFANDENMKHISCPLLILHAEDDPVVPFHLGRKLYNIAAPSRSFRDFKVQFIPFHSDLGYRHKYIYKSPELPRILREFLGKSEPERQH
The assay is described as follows: Inhibition of ABHD12 in mouse BV2 cells preincubated for 30 mins and subsequent addition of [3H]-2-OG substrate measured after 15 mins by liquid scintillation counting method. In kind it is cell-based.

Assay [2] deals with T2, Monoacylglycerol lipase ABHD6 (Mus musculus) (UniProt Q8R2Y0).
T2 sequence (whole entry): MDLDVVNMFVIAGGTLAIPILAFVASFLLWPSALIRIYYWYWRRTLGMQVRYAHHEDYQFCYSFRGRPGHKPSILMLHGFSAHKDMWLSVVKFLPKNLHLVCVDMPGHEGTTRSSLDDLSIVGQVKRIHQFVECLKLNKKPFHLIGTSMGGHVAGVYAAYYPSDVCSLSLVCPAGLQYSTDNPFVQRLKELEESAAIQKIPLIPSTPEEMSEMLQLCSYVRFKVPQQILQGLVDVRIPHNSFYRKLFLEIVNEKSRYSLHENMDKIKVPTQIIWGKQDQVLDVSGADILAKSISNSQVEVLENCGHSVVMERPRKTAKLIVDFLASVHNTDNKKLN
As to the kind of experiment: Inhibition of ABHD6 in mouse BV2 cells preincubated for 30 mins and subsequent addition of [3H]-2-OG substrate measured after 15 mins by liquid scintillation counting method. In kind it is cell-based.

The next assay is filed under the species Sus scrofa. As to the kind of experiment: Inhibition of MAGL in pig brain homogenates using [3H]2-OG as substrate at 10 uM after 15 mins in presence of URB597 by liquid scintillation counting method. In kind it is tissue-based.
For assay [3], the target named is T3, Cannabinoid receptor 2 (Homo sapiens, UniProt P34972). The assay is described as follows: Displacement of [3H]CP55,940 from human CB2 receptor expressed in CHOK1 cell membranes at 1 uM after 2 hrs by liquid scintillation counting method relative to control.
Assay [4] addresses T4, Cannabinoid receptor 1 (Homo sapiens, UniProt P21554). The assay is described as follows: Displacement of [3H]CP55,940 from human CB1 receptor expressed in CHOK1 cell membranes at 1 uM after 2 hrs by liquid scintillation counting method relative to control.
In assay [5] the target is T5, Fatty-acid amide hydrolase 1 (Homo sapiens) (UniProt O00519).
T5 sequence (whole entry): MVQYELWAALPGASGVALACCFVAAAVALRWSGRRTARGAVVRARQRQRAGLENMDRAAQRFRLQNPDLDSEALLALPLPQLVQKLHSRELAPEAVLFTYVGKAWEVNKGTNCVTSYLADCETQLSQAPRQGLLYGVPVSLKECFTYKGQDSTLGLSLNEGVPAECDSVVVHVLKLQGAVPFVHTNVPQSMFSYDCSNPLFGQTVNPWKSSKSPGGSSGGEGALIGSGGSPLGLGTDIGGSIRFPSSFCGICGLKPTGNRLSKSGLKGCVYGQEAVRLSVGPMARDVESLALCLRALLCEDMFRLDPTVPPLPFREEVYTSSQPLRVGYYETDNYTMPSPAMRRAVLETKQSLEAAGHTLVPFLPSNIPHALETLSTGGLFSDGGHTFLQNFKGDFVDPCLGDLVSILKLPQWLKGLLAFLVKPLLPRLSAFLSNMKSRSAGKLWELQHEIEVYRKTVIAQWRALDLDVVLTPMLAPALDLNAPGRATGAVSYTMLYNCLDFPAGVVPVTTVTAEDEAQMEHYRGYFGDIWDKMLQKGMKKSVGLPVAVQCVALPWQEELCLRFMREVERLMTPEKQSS
The assay is described as follows: Inhibition of FAAH in human U937 cells assessed as decrease in [ethanolamine-1-3H]AEA uptake at 10 uM preincubated for 2 mins followed by AEA addition after 5 mins by liquid scintillation counting method. The format is cell-based.

Assay [6] can be described thus: Inhibition of MAGL in pig brain homogenates using [3H]2-OG as substrate after 15 mins by liquid scintillation counting method. The format is tissue-based, Sus scrofa.
In assay [7] the target is T3, Cannabinoid receptor 2. As to the kind of experiment: Displacement of [3H]CP55,940 from human CB2 receptor expressed in CHOK1 cell membranes after 2 hrs by liquid scintillation counting method. (In general: In a radioligand displacement assay an active substance lowers the binding of a labelled ligand.)
The target in assay [8] is T6, Fatty-acid amide hydrolase 1 (Homo sapiens, UniProt O00519).
T6 sequence (O00519 whole entry): T5 sequence (whole entry)
As to the kind of experiment: Inhibition of FAAH in human U937 cells using [ethanolamine-1-3H]AEA as substrate after 15 mins by liquid scintillation counting method. In kind it is cell-based.

Assay [9] addresses T6, Fatty-acid amide hydrolase 1. As to the kind of experiment: Inhibition of FAAH in human U937 cells assessed as decrease in [ethanolamine-1-3H]AEA uptake preincubated for 2 mins followed by AEA addition after 5 mins by liquid scintillation counting method. In kind it is cell-based.
Assay [10] has as its target T7, Prostaglandin G/H synthase 2 (Homo sapiens, UniProt P35354).
T7 sequence (P35354 whole entry): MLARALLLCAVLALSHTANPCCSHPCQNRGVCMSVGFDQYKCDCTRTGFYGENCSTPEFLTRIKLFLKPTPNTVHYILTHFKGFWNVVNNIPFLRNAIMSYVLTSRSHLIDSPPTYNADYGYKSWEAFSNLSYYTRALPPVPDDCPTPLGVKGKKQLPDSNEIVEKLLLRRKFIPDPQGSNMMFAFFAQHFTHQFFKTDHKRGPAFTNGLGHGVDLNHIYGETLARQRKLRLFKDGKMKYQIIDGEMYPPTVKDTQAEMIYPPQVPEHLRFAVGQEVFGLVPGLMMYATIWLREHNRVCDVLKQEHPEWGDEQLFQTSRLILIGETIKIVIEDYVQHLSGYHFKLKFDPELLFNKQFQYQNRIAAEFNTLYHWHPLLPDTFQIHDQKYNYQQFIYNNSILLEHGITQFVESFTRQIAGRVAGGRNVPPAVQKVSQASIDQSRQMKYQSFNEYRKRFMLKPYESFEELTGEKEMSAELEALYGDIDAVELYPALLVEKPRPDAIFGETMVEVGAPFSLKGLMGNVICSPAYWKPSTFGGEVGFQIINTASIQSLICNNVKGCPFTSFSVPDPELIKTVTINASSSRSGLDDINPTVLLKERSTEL
As to the kind of experiment: Inhibition of recombinant human COX2 preincubated for 15 mins followed by arachidonic acid/2-OG substrate addition after 5 mins by ADHP probe-based fluorescence assay.

Assay [11] addresses T4, Cannabinoid receptor 1. The assay is described as follows: Displacement of [3H]CP55,940 from human CB1 receptor expressed in CHOK1 cell membranes after 2 hrs by liquid scintillation counting method.
Assay [12] concerns the target T5, Fatty-acid amide hydrolase 1 (Homo sapiens). As to the kind of experiment: Inhibition of FAAH in human U937 cells using [ethanolamine-1-3H]AEA as substrate at 10 uM after 15 mins by liquid scintillation counting method relative to control. The format is cell-based.

Each structure is given as a SMILES string. The source made the active and inactive calls. The calls are words filed in the database; no cut-off is given here.

T4 sequence (P21554 whole entry): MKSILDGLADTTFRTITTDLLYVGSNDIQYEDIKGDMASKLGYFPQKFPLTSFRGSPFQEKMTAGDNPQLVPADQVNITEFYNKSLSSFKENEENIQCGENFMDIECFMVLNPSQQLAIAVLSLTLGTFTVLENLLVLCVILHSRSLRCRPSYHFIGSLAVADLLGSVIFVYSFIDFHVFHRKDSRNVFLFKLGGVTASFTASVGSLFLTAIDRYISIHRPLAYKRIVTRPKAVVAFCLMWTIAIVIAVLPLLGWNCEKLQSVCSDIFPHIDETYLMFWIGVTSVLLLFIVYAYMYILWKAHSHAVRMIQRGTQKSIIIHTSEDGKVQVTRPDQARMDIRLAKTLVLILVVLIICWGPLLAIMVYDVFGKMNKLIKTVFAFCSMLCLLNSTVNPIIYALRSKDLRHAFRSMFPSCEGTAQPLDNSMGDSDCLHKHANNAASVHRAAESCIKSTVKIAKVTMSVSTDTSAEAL
T3 sequence (P34972 whole entry): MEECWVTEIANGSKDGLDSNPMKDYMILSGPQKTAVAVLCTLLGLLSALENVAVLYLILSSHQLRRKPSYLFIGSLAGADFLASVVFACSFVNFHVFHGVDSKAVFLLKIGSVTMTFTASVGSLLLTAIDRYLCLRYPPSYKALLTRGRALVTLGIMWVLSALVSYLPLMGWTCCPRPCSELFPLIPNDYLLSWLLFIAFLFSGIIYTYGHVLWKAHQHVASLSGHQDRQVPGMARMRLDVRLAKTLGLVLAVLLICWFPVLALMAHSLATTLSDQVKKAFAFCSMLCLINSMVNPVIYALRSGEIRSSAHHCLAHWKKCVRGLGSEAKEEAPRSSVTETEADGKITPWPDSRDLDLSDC

For the molecule `CCC(C)/C=C(C)/C=C/C=C/C(=O)c1c(OC)c(-c2ccc(O)cc2)c[nH]c1=O` (centres undefined), the inhibition entry (in assay [1]; in assay [2]; in the assay filed under Sus scrofa) was “inactive” each time. Moreover, the inhibition at Cannabinoid receptor 2 [3] and at Cannabinoid receptor 1 [4] was less than 20% in each case. Also, the inhibition entry in assay [5] is “Active”.
Take `CCCCCCCCCCCCCCCCCC(=O)c1c(O)c(-c2ccc(O)cc2)c[nH]c1=O`: the IC50 in [6], in assay [8], in assay [9] and in [10] was greater than 10 µM each time. The Ki on Cannabinoid receptor 2 [7] and on Cannabinoid receptor 1 [11] was greater than 1 µM in each case. For the same molecule, the inhibition entry (in assay [1]; in [2]; in the assay listed under Sus scrofa; in assay [5]) was “inactive” throughout. For the same molecule, the inhibition at Cannabinoid receptor 2 [3] and on Cannabinoid receptor 1 [4] was less than 20% each time.
`CCC(C)/C=C(C)/C=C/C=C/C(=O)c1c(O)c(-c2ccc(O)cc2)c[nH]c1=O` (centres undefined): the inhibition result (in assay [1]; in assay [2]; in the assay listed under Sus scrofa; in assay [5]) was “inactive” each time. The inhibition on Cannabinoid receptor 2 [3] and at Cannabinoid receptor 1 [4] was less than 20% throughout.
As for `CCCCCCCCCCC[C@@H](C[C@@H]1OC(=O)[C@H]1CCCCCC)OC(=O)[C@H](CC(C)C)NC=O`, the inhibition result in assay [1] and in assay [2] was “Active” throughout.
`NC(=O)c1cccc(-c2cccc(OC(=O)NC3CCCCC3)c2)c1`: the inhibition entry (in [1]; in [2]; in the assay listed under Sus scrofa) was “inactive” throughout.
For `C=CCCCOC(=O)c1c(O)c(-c2ccc(O)cc2)c[nH]c1=O`, the inhibition result (in assay [1]; in [2]; in the assay filed under Sus scrofa; in assay [5]) was “inactive” throughout. Moreover, the inhibition on Cannabinoid receptor 2 [3] and at Cannabinoid receptor 1 [4] was less than 20% each time.
Take `CCC(/C=C/C=C/C=C/C(=O)c1c(O)c(-c2ccc(O)cc2)c[nH]c1=O)CO` (centres undefined): the inhibition entry (in assay [1]; in assay [2]; in the assay filed under Sus scrofa; in assay [5]) was “inactive” in each case. In addition, the inhibition at Cannabinoid receptor 2 [3] and at Cannabinoid receptor 1 [4] was less than 20% in each case.
As to `CC[C@@H](C)/C=C(C)/C=C/C(=O)c1c(O)c(-c2ccc(O)cc2)c[nH]c1=O`, the inhibition entry (in [1]; in [2]; in the assay filed under Sus scrofa) was “inactive” in each case. This molecule also registered an inhibition on Cannabinoid receptor 1 [4] of 40%. The inhibition entry in assay [5] is “Active”.
In the case of `CCC(C)CC(C)/C=C(C)/C=C/C(=O)c1c(O)c(-c2ccc(O)cc2)c[nH]c1=O` (centres undefined), the inhibition result (in assay [1]; in assay [2]; in the assay listed under Sus scrofa; in assay [5]) was “inactive” in each case. For the same molecule, the inhibition on Cannabinoid receptor 1 [4] stood at 40%.
In the case of `CCCCCCCC(=O)c1c(O)c(-c2ccc(O)cc2)c[nH]c1=O`, the inhibition in [12] is 80%; at Cannabinoid receptor 2 [3], less than 20%; at Cannabinoid receptor 1 [4], less than 20%. Besides, the IC50 in assay [6] was greater than 10 µM; in assay [8], greater than 10 µM; in assay [9], 0.7 µM; in assay [10] it was greater than 10 µM. In addition, the Ki at Cannabinoid receptor 2 [7] and at Cannabinoid receptor 1 [11] was greater than 1 µM in each case. Further, the inhibition entry (in [1]; in assay [2]; in the assay listed under Sus scrofa) was “inactive” in each case. Also, in [5], the inhibition result was “Active”.
Turning to `CCC(/C=C(C)/C=C/C(=O)c1c(O)c(-c2ccc(O)cc2)c[nH]c1=O)CO` (centres undefined), the inhibition entry (in [1]; in assay [2]; in the assay filed under Sus scrofa; in [5]) was “inactive” each time. The inhibition at Cannabinoid receptor 2 [3] and on Cannabinoid receptor 1 [4] was less than 20% in each case.
Consider `CCC(C)/C=C(C)/C=C/C=C/C=C/C(=O)c1c(O)c(-c2ccc(O)cc2)c[nH]c1=O` (centres undefined) [FARINOSONE A], for which the IC50 is greater than 10 µM in assay [6], greater than 10 µM in assay [8], 1.2 µM in [9] and greater than 10 µM in assay [10]. Besides, the inhibition constant (Ki) on Cannabinoid receptor 2 [7] and on Cannabinoid receptor 1 [11] was greater than 1 µM in each case. Also, the inhibition entry (in assay [1]; in [2]; in the assay filed under Sus scrofa) was “inactive” in each case. The inhibition on Cannabinoid receptor 2 [3] and at Cannabinoid receptor 1 [4] was less than 20% in each case. Further, the inhibition entry in [5] was “Active”.
For `CN(Cc1cccc(-c2ccncc2)c1)C(=O)Oc1ccc(-c2ccc(C(N)=O)cc2)cc1`, the inhibition entry in [1] and in assay [2] was “Active” throughout.
Turning to `O=C(Oc1ccc([N+](=O)[O-])cc1)N1CCC(C(O)(c2ccc3c(c2)OCO3)c2ccc3c(c2)OCO3)CC1`, the inhibition result (in assay [1]; in assay [2]; in the assay listed under Sus scrofa) was “inactive” throughout.
In the case of `CCC(C)CC(C)/C=C(C)/C=C/C=C/C(=O)c1c(O)c(-c2ccc(O)cc2)c[nH]c1=O` (centres undefined), the inhibition in [12] was 40 to 50%; at Cannabinoid receptor 2 [3], less than 20%; on Cannabinoid receptor 1 [4] it was less than 20%. The inhibition result (in assay [1]; in [2]; in the assay listed under Sus scrofa) was “inactive” in each case. Moreover, the inhibition entry in assay [5] was “Active”.

As usually defined, the inhibition is the percentage by which the read-out fell short of the control. What is called IC50 is the concentration that inhibits the measured activity by half. Broadly, the Ki is a dissociation constant, usually derived from enzyme kinetics or from competition with a known ligand. Low values mean a stronger hold on the target, high ones a looser hold on the target.
